Reference: patent EP0903343A1, “Alpha-Substituted phenylpropionic acid derivative and medicine containing the same” (SSP Co., Ltd., priority 1997, dated 1999)

tested on: db/db Mice; test: Antidiabetic effect on diabetic model mice (blood glucose lowering); assay type: in vivo; conditions: Mus musculus, po, 10 mg/kg/day orally once a day for 4 days, blood glucose 18 to 24 hours after final administration, vs control group, read-out: Percent reduction (%) of blood glucose
Protocol: The α-substituted phenylpropionic acid derivatives (1) according to the present invention were used to conduct a test for evaluating their activities against model mice suffering from non-insulin dependent diabetes mellitus (NIDDM). Incidentally, pioglitazone was used as a comparative compound.
db/db Mice (Crea Co.; preliminarily rearing male mice aged 7 to 9 weeks for a week and using 4 or 5 mice having a blood glucose level of at least 300 mg/dl as a group) were used as subject animals. A predetermined amount of each of the compounds according to the present invention or the comparative compound was orally administered to the mice for 4 days once a day with the compound suspended in a 0.5% aqueous solution of sodium carboxymethyl cellulose. At 18 to 24 hours after the final administration, blood was collected from each of the subject animals to determine its blood glucose level (found value) by means of a simplified blood glucose meter, Mediace (manufactured by Terumo Corporation). On the other hand, the blood glucose level of a group of mice (control group) to which only a 0.5% aqueous solution of sodium carboxymethyl cellulose had been administered was also determined (control value).
On the basis of the thus-determined blood glucose level as to each of the compounds according to the present invention and the comparative compound, percent reduction of blood glucose was calculated out in accordance with the following equation. Percent reduction (%) = [(Control value - Found value)/(Control value)] x 100 [formula]

For `CCOC(Cc1ccc(OCCn2nc(C)c3ccccc3c2=O)cc1)C(=O)O` (stereo not drawn) [Compound 1BC], the inhibition in vivo at 10 mg/kg/day was 50%.

same assay, conditions: Mus musculus, po, 20 mg/kg/day orally once a day for 4 days, blood glucose 18 to 24 hours after final administration, vs control group, read-out: Percent reduction (%) of blood glucose

First: CCOC(Cc1ccc(OCCN2COc3ccccc3C2=O)cc1)C(N)=O (stereo not drawn) [Compound 1J]
Second: CCOC(Cc1ccc(OCCn2ncc3ccccc3c2=O)cc1)C(=O)O (stereo not drawn) [Compound 1B, 2-ethoxy-3-{4-[2-(1-oxo-1,2-dihydrophthalazin-2-yl)ethoxy]phenyl}propanoic acid]
The inhibition in vivo at 20 mg/kg/day of the first is higher: 73% for the first, 43% for the second.

Going from `CCOC(Cc1ccc(OCCn2ncc3ccccc3c2=O)cc1)C(=O)NO` (stereo not drawn) [Compound 1AA, 2-ethoxy-3-{4-[2-(1-oxo-1,2-dihydrophthalazin-2-yl)ethoxy]phenyl}propanohydroxamic acid] to `CCOC(Cc1ccc(OCCn2ccc3ccccc3c2=O)cc1)C(=O)O` (stereo not drawn) [Compound 1BS], the inhibition in vivo at 20 mg/kg/day rises from 48% to 60%.

Going from `CCOC(Cc1ccc(OCCn2c(=O)c3ccc(C(F)(F)F)cc3n(C)c2=O)cc1)C(=O)O` (stereo not drawn) [Compound 1AR] to `CCOC(=O)C(Cc1ccc(OCCn2nc(C)c3ccccc3c2=O)cc1)OCC` (stereo not drawn) [Compound 1BI, ethyl 2-ethoxy-3-{4-[2-(4-methyl-1-oxo-1,2-dihydrophthalazin-2-yl)ethoxy]phenyl}propanoate], the inhibition in vivo at 20 mg/kg/day rises from 38% to 52%.

`CCc1ccc(CCOc2ccc(CC3SC(=O)NC3=O)cc2)nc1` (stereo not drawn) [Pioglitazone, pioglitazone, reference compound] gave an inhibition in vivo at 20 mg/kg/day of 26%.

same assay, conditions: Mus musculus, po, 50 mg/kg/day orally once a day for 4 days, blood glucose 18 to 24 hours after final administration, vs control group, read-out: Percent reduction (%) of blood glucose

Compared with `CCOC(Cc1ccc(OCCn2ncc3ccccc3c2=O)cc1)C(N)=O` (stereo not drawn) [Compound 1A, 2-ethoxy-3-{4-[2-(1-oxo-1,2-dihydrophthalazin-2-yl)ethoxy]phenyl}propanamide], `CCOC(Cc1ccc(CCn2cnc3ccccc3c2=O)cc1)C(N)=O` (stereo not drawn) [Compound 1Q, 2-ethoxy-3-{4-[2-(4-oxo-3,4-dihydroquinazolin-3-yl)ethyl]phenyl}propanamide] is lower in inhibition in vivo at 50 mg/kg/day: 73% for the first, 49% for the second.

Compared with `CC(C)OC(Cc1ccc(OCCN2COc3ccccc3C2=O)cc1)C(N)=O` (stereo not drawn) [Compound 1N], `COC(Cc1ccc(OCCN2COc3ccccc3C2=O)cc1)C(N)=O` (stereo not drawn) [Compound 1P, 2-methoxy-3-{4-[2-(4-oxo-3,4-dihydro-2H-1,3-benzoxazin-3-yl)ethoxy]phenyl}propanamide] is lower in inhibition in vivo at 50 mg/kg/day: 72% for the first, 66% for the second.

First: CCOC(Cc1ccc(OCCN2COc3ccccc3C2=O)cc1)C(=O)O (stereo not drawn) [Compound 1K]
Second: CCSC(Cc1ccc(OCCN2COc3ccccc3C2=O)cc1)C(=O)O (stereo not drawn) [Compound 1O, 2-ethylthio-3-{4-[2-(4-oxo-3,4-dihydro-2H-1,3-benzoxazin-3-yl)ethoxy]phenyl}propanoic acid]
The inhibition in vivo at 50 mg/kg/day of the first is higher: 69% for the first, 42% for the second.

With `CCc1ccc(CCOc2ccc(CC3SC(=O)NC3=O)cc2)nc1` (stereo not drawn) [Pioglitazone, pioglitazone, reference compound] the inhibition in vivo at 50 mg/kg/day was 44%.
